Data taken from patent publication US10479793B2, “Imidazopyridazine compounds useful as modulators of IL-12, IL-23 and/or IFN alpha responses” (BRISTOL-MYERS SQUIBB COMPANY, priority 2015, dated 2019).
pEC50, pIC50: −log10 of the molar value. Like-named read-outs stand apart in the source and are kept apart here.

Experiments:
[1] = biological target: T1, recombinantly expressed His-tagged protein corresponding to amino acids 575-869 of human Tyk2 (Homo sapiens, UniProt P29597); assay: Probe displacement assay (scintillation proximity, tritiated probe); format: binding; conditions: His-tagged Tyk2 (575-869) 2.5 nM, 40 nM radiolabeled probe, 30 minutes at room temperature
T1 construct: made in house
T1 sequence (P29597 with tags, fused parts or gaps): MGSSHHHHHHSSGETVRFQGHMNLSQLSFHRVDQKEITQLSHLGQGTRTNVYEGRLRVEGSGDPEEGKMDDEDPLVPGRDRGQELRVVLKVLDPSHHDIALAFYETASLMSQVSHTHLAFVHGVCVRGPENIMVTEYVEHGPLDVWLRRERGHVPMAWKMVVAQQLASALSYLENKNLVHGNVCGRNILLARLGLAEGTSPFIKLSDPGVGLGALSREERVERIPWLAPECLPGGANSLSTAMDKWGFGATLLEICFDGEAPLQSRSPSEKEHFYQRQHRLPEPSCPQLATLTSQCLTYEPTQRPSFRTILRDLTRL
Experimental: The preparation of radiolabeled probe, (R)—N-(1-(3-(8-methyl-5-(methylamino)-8H-imidazo[4,5-d]thiazolo[5,4-b]pyridin-2-yl)phenyl)ethyl)-2-([^3H]methylsulfonyl)benzamide, was performed as described below: […]

[2] = test system: IL-23 stimulated Kit225 T cells with a stably-integrated STAT-dependent luciferase reporter; assay: Kit225 T cell assay, IL-23 stimulated STAT-dependent luciferase reporter; format: cell-based, human; conditions: luciferase, read-out: IL-23 Kit225 Reporter, (IC50)
Experimental: (§1) Kit225 T cells with a stably-integrated STAT-dependent luciferase reporter were plated in RPMI (GIBCO) containing 10% heat-inactivated FBS (GIBCO) and 100 U/mL PenStrep (GIBCO). The cells were then stimulated with either 20 ng/mL human recombinant IL-23 or 200 U/mL human recombinant IFNα (PBL InterferonSource) for 5-6 hours. Luciferase expression was measured using the STEADY-GLO Luciferase Assay System (PROMEGA) according to the manufacturer's instructions.

[3] = test system: IFNα stimulated Kit225 T cells with a stably-integrated STAT-dependent luciferase reporter; assay: Kit225 T cell assay, IFNα stimulated STAT-dependent luciferase reporter; format: cell-based, human; conditions: 5-6 hours, luciferase, read-out: IFNa Kit225 Reporter, (IC50)
Experimental: as §1

[4] = KIT225, 20 ng/mL human recombinant IL-23, 5-6 hours
[5] = KIT225, 200 U/mL human recombinant IFNα
[6] = Homo sapiens, KIT225, 20 ng/mL human recombinant IL-23, 5-6 hours
[7] = Homo sapiens, KIT225, 200 U/mL human recombinant IFNα

Compound | pEC50 [1] | pIC50 [2, 4] | pIC50 [3, 5] | pIC50 [2, 6] | pIC50 [3, 7]
CNc1cc(Nc2cccnc2OC)nn2c(C(=O)NC3(C#N)CC3)cnc12 [Example 24] | 8.14 | 7.40 | 7.30 | – | –
CNc1cc(Nc2cccnc2OC)nn2c(C(=O)NCCO)cnc12 [Example 25] | 8.22 | 7.30 | 7.05 | – | –
Cc1cc(C)cc(Nc2cc(Nc3cc(C)n(C)n3)c3ncc(C(N)=O)n3n2)c1 [Example 62] | 6.52 | 4.88 | 4.96 | – | –
COCCNc1cc(Nc2cc(C)cc(C)c2)nn2c(C(N)=O)cnc12 [Example 56] | 7.15 | 5.67 | 5.75 | – | –
Cc1cc(C)cc(Nc2cc(Nc3cnccn3)c3ncc(C(N)=O)n3n2)c1 [Example 63] | 6.55 | 4.90 | 4.90 | – | –
CNc1cc(Nc2cc(F)cc(F)c2F)nn2c(C(=O)NCC(C)(C)CO)cnc12 [Example 18] | 8.43 | 7.40 | 8.00 | – | –
CCCNc1cc(Nc2cc(C)cc(C)c2)nn2c(C(N)=O)cnc12 [Example 54] | 7.52 | 5.90 | 5.93 | – | –
CNc1cc(Nc2cc(F)cc(F)c2OC)nn2c(C(=O)NCC(C)(C)C)cnc12 [Example 16] | 8.15 | 6.62 | 7.05 | – | –
Cc1cc(F)cc(Nc2cc(NCC(F)(F)F)c3ncc(C(N)=O)n3n2)c1 [Example 59] | 6.80 | 5.02 | 4.90 | – | –
CNc1cc(Nc2c(F)c(F)cc(F)c2F)nn2c(C(=O)NC3CC3)cnc12 [Example 20] | 8.40 | – | – | 7.22 | 7.30
Cc1cc(C)cc(Nc2cc(NCCO)c3ncc(C(N)=O)n3n2)c1 [Example 52] | 7.15 | 5.15 | 4.89 | – | –
CNc1cc(Nc2c(F)c(F)cc(F)c2F)nn2c(C(N)=O)cnc12 [Example 19] | 8.23 | 6.57 | 6.77 | – | –
NC(=O)c1cnc2c(NC3CC3)cc(Nc3cccc(F)c3)nn12 [Example 47] | 7.40 | 5.95 | 5.95 | – | –
Cc1cc(C)cc(Nc2nc(NC3CC3)c3ncc(C(N)=O)n3n2)c1 [Example 70] | 7.10 | 4.95 | 4.90 | – | –
N#Cc1cc(Nc2cc(NC3CC3)c3ncc(C(=O)NC4CC4)n3n2)cc(C(F)(F)F)c1 [Example 33] | 6.72 | 4.90 | 4.90 | – | –
Cc1cc(F)cc(Nc2nc(NC3CC3)c3ncc(C(N)=O)n3n2)c1 [Example 71] | 6.85 | 5.53 | 4.90 | – | –
CNc1cc(Nc2cccnc2-n2cccn2)nn2c(C(=O)NC(C)CO)cnc12 (stereo not drawn) [Example 29] | 7.40 | 6.57 | 6.39 | – | –
CNc1cc(Nc2cccc3c2OCCO3)nn2c(C(=O)NCC(C)(C)O)cnc12 [Example 82] | 8.00 | 6.74 | 7.05 | – | –
CNc1cc(N2CCc3ccccc32)nn2c(C(=O)NCC(C)(C)O)cnc12 [Example 11] | 7.05 | 5.54 | 5.64 | – | –

Next, values leading:

pEC50 [1] | pIC50 [2, 4] | pIC50 [3, 5] | pIC50 [2, 6] | pIC50 [3, 7] | Compound
8.37 | 7.05 | 7.22 | – | – | CNc1cc(Nc2cccc(N3CCOC3=O)n2)nn2c(C(=O)NC3CC3)cnc12 [Example 87]
8.86 | – | – | 7.70 | 7.52 | CNc1cc(Nc2cccnc2OC)nn2c(C(=O)NC3CC3)cnc12 [Example 94]
8.14 | – | – | 6.29 | 6.22 | CNc1cc(Nc2cncc(C)c2)nn2c(C(=O)NC3CC3)cnc12 [Example 96]
8.49 | – | – | 7.52 | 7.52 | CNc1cc(Nc2cc(C)cc(F)c2)nn2c(C(=O)NC3CC3)cnc12 [Example 2]
8.03 | 7.40 | 7.52 | – | – | CNc1cc(Nc2cccc(-n3cccn3)n2)nn2c(C(=O)NC3CC3)cnc12 [Example 85]
6.85 | 4.90 | 4.90 | – | – | CNc1cc(Nc2cccnc2-n2nc(C)cc2C(F)(F)F)nn2c(C(=O)NC3CC3)cnc12 [Example 100]
8.44 | – | – | 7.52 | 7.52 | CNc1cc(Nc2cc(F)ccc2F)nn2c(C(=O)NC3CC3)cnc12 [Example 8]
6.57 | – | – | 5.14 | 5.24 | CNc1cc(Nc2cccnc2-n2ccc(C)n2)nn2c(C(=O)NC3CC3)cnc12 [Example 101]
8.12 | 6.80 | 6.92 | – | – | O=C(NC1CC1)c1cnc2c(NCCN3CCOCC3)cc(Nc3cccc4c3OCCO4)nn12 [Example 110]
7.52 | – | – | 6.38 | 6.19 | CNc1cc(Nc2cccnc2C)nn2c(C(=O)NC3CC3)cnc12 [Example 97]
8.16 | – | – | 7.15 | 7.30 | CNc1cc(Nc2cc(F)cc(F)c2OC)nn2c(C(=O)NC3CC3)cnc12 [Example 79]
7.70 | – | – | 6.10 | 6.24 | Cc1cc(F)cc(Nc2cc(NC3CC3)c3ncc(C(=O)NC4CC4)n3n2)c1 [Example 38]
